In ChEMBL document CHEMBL4813952, “Axial Chiral Binaphthoquinone and Perylenequinones from the Stromata of Hypocrella bambusae Are SARS-CoV-2 Entry Inhibitors” (J Nat Prod, 2021) one finds Activity data, which are given here for 3 molecules.

Active and inactive are the calls of the source. The rule behind the calls is not given here.

The assay relates to Vesicular stomatitis virus. The experiment in a line: Antiviral activity against pseudotype VSV harbouring glycoprotein infected in human 293T/ACE2 cells assessed as inhibition of viral infection measured after 48 hrs by luciferase reporter gene assay. Format: functional, organism-based.
`COc1c(O)c2c(=O)cc(OC)c3c4c(OC)cc(=O)c5c(O)c(OC)c6c(c(c1C[C@](C)(O)[C@H]6C(C)=O)c23)c54`: the result was inactive.
Next, `COC1=C(CC(C)=O)C(=O)c2c(c(O)cc(OC)c2-c2c(OC)cc(O)c3c2C(=O)C(CC(C)=O)=C(OC)C3=O)C1=O`: “inactive”.
In the case of `COc1c2c3c4c(c(OC)c(=O)c5c(O)cc(OC)c(c6c(OC)cc(O)c(c1=O)c63)c54)[C@@H](C(C)=O)[C@@](C)(O)C2` [HYPOCRELLIN A], the result was inactive.
